Reference: PMC6028563, “Probing Substituents in the 1- and 3-Position: Tetrahydropyrazino-Annelated Water-Soluble Xanthine Derivatives as Multi-Target Drugs With Potent Adenosine Receptor Antagonistic Activity” (Frontiers in Chemistry, 2018)
Values after ≈ are worked out from the molar mass of the structure shown. Like-named read-outs stand apart in the source and are kept apart here.

Assays:
[1] = biological target: T1, rat A2A AR (Rattus norvegicus, UniProt P30543); assay: Radioligand binding assay at rat A2A AR (rat brain striatum) vs. [^3H]MSX-2; conditions: rat (r); for Ki: rat brain striatum, n = 3, read-out: Ki ± SEM, A2A vs. [^3H]MSX-2
T1 construct: A2A ARs of rat brain striatal membrane preparations; from tissue; host or cells: rat brain striatum membranes
T1 sequence (P30543 whole entry): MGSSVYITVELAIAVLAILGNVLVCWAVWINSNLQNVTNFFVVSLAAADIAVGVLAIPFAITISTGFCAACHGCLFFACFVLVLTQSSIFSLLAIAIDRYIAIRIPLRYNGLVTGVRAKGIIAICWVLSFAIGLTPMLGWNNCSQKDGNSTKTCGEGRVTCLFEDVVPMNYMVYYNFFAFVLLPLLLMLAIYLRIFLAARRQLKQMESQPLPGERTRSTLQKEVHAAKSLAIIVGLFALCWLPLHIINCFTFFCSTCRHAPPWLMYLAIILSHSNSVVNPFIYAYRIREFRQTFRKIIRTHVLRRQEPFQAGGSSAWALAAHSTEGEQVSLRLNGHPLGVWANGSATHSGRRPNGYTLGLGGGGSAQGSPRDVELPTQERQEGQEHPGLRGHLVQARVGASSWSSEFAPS
In short: (§1)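 Affinity values derive from radioligand displacement on membrane preparations: native rat tissue (cortex for A1, striatum for A2A) or CHO cells recombinantly expressing human A1, A2A, A2B or A3 ARs.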

[2] = Thermodynamic solubility measurements; assay type: physicochemical; conditions: thermodynamic from solid, thermodynamic solubility
Description: This is expected to facilitate dissolution in the stomach. Depending on the substitution pattern they may also be well soluble at higher pH values (Brunschweiger et al., [2014]). In the present study we measured thermodynamic solubility of only very few compounds exemplarily (14a-e, 14g, 15f,g) and confirmed their high solubility at pH 1 (see Table S1 in Supplementary Material). Most of these compounds were still soluble at pH 7.4. The best soluble derivative was the 3-ethyl-1-methyl-8-m-fluorobenzyl derivative 14g with solubilities of >1.5 g/L (4.2 mM) at pH 1, 50 mg/L (0.14 mM) at pH 4, and 40 mg/L ([…]) at pH 7.4.
Table S1. Solubility of selected compounds at three different pH values (in mg/mL).a
Compound pH 1 pH 4 pH 7.4
adetermined by thermodynamic solubility measurements.

[3] = biological target: T2, human A2A AR (Homo sapiens, UniProt P29274); assay: Radioligand binding assay at human A2A AR vs. [^3H]MSX-2; conditions: CHO cell membranes, n = 3, read-out: Ki ± SEM, A2A vs. [^3H]MSX-2
T2 construct: expressed in transfected cells; host or cells: CHO cells
T2 sequence (P29274 whole entry): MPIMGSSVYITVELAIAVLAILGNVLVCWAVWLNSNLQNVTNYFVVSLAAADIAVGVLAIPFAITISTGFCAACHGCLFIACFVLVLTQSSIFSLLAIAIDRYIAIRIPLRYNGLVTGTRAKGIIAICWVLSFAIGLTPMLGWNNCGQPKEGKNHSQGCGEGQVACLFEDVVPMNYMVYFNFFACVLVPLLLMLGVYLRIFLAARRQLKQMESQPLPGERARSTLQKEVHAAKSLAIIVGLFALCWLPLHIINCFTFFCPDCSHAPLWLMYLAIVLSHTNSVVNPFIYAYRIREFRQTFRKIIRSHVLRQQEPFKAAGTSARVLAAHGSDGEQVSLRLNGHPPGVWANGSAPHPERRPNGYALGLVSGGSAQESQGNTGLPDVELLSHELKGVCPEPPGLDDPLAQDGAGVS
In short: as §1

[4] = biological target: T3, recombinant human MAO-A (Homo sapiens, UniProt P21397); assay: Monoamine oxidase assay (Amplex Red), MAO-A; assay type: biochemical; conditions: for inhibition at 10 µM: at 10,000 nM, read-out: % inhibition at indicated concentration, Human MAO-A; for IC50: n = 3, read-out: IC50 ± SEM, Human MAO-A
T3 construct: purchased Sigma-Aldrich M7316; host or cells: baculovirus-infected insect cells
T3 sequence (P21397 1-527): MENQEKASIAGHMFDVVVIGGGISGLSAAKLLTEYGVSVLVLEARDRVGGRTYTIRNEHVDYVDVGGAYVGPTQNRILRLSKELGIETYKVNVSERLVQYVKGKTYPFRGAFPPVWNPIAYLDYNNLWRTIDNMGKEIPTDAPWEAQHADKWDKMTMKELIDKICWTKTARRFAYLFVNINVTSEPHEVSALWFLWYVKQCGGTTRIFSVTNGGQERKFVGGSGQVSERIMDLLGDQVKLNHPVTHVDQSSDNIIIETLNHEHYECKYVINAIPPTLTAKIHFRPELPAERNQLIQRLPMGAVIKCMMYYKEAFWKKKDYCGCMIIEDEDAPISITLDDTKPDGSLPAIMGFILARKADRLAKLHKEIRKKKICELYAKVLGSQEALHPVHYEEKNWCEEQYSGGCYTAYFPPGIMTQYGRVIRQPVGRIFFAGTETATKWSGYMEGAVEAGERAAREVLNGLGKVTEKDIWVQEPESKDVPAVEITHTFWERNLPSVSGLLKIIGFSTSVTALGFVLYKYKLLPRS
In short: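 Inhibition was measured with an Amplex Red monoamine oxidase assay, using human MAO-A and MAO-B produced recombinantly in baculovirus-infected insect cells. For rat MAO-B, liver mitochondria-enriched fractions from male Sprague Dawley rats served as enzyme source.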

[5] = aqueous buffer, pH 4, read-out: Solubility, pH 4
[6] = aqueous buffer, pH 7.4, read-out: Solubility, pH 7.4
[7] = simulated gastric fluid, pH 1, read-out: Solubility, pH 1

Row | Ki [1] | solubility [2, 5] | solubility [2, 6] | solubility [2, 7] | Ki [3] | inhibition at 10 µM [4] | IC50 [4] | % inhibition of radioligand binding at indicated concentration, A2A vs. [^3H]MSX-2 ([1]; at 1,000 nM) | Structure (SMILES)
1 | 408 ± 90 nM | 0.9 µg/mL (≈ 2.15 µM) | 0.8 µg/mL (≈ 1.91 µM) | 200 µg/mL (≈ 478 µM) | 497 ± 62 nM |  |  |  | CCn1c(=O)c2c(nc3n2CCN(Cc2ccccc2Br)C3)n(C)c1=O [Compound 14a, 8-(2-bromobenzyl)-3-ethyl-1-methyl-6,7,8,9-tetrahydropyrazino[2,1-f]purine-2,4(1H,3H)-dione]
2 | 708 ± 25 nM | 2 µg/mL (≈ 4.91 µM) | 2 µg/mL (≈ 4.91 µM) | 400 µg/mL (≈ 982 µM) | 1780 nM | 12% | > 10000 nM |  | CCn1c(=O)c2c(nc3n2CCN(Cc2cccc(C(F)(F)F)c2)C3)n(C)c1=O [Compound 14e, 3-ethyl-1-methyl-8-(3-(trifluoromethyl)benzyl)-6,7,8,9-tetrahydropyrazino[2,1-f]purine-2,4(1H,3H)-dione]
3 | > 1000 nM | 6 µg/mL (≈ 14.3 µM) | 3 µg/mL (≈ 7.17 µM) | 1300 µg/mL (≈ 3110 µM) |  | 2% | > 10000 nM | 35% | CCn1c(=O)c2c(nc3n2CCN(Cc2ccc(Br)cc2)C3)n(C)c1=O [Compound 14c, 8-(4-bromobenzyl)-3-ethyl-1-methyl-6,7,8,9-tetrahydropyrazino[2,1-f]purine-2,4(1H,3H)-dione]
4 | 1030 nM | 2 µg/mL (≈ 4.75 µM) | 2 µg/mL (≈ 4.75 µM) | 600 µg/mL (≈ 1420 µM) | 277 ± 59 nM |  |  |  | CCn1c(=O)c2c(nc3n2CCN(Cc2cccc(C(F)(F)F)c2)C3)n(CC)c1=O [Compound 15g, 1,3-diethyl-8-(3-(trifluoromethyl)benzyl)-6,7,8,9-tetrahydropyrazino[2,1-f]purine-2,4(1H,3H)-dione]
